Values after ≈ are worked out from the molar mass of the structure shown.
Key:
Gossypium hirsutum [1] = test: Phytotoxicity in Gossypium hirsutum (cotton) assessed as concentration required to cause foliar edge burn applied through foliar spray after 4 weeks; format: organism-based; settings: in vivo, other, 672 h
Pisum sativum [2] = test: Phytotoxicity in Pisum sativum (pea) assessed as root dry weight at 2 kg ai/ha applied to soil measured up to 7 days post planting at 19 degC (reference value: 2 +/- 0.21 g); format: organism-based; settings: lathyrus oleraceus, in vivo, other, 168 h
Meloidogyne incognita [3] = test: Nematicidal activity against second juvenile stage of Meloidogyne incognita (root-knot nematode) infected pea plant assessed as root dry weight at 3 kg ai/ha applied to soil measured up to 14 days post planting under green house conditions (reference value: 0.25 +/- 0.041 g); format: functional
Meloidogyne incognita [4] = test: Nematicidal activity against second juvenile stage of Meloidogyne incognita (root-knot nematode) infected lima bean plant assessed as shoot dry weight at 2 kg ai/ha applied to soil measured during planting under green house conditions (reference value: 1.84 +/- 0.18 g); format: functional
Phaseolus lunatus [5] = test: Phytotoxicity in Phaseolus lunatus (lima bean) plant assessed as emergence at 2.56 kg ai/ha applied to soil measured up to 14 days under green house conditions (reference value: 70 +/- 16%); format: organism-based; settings: in vivo, other, 336 h
Meloidogyne incognita [6] = test: Nematicidal activity against second juvenile stage of Meloidogyne incognita (root-knot nematode) infected pea plant assessed as emergence at 4 kg ai/ha applied to soil measured up to 14 days post planting under green house conditions (reference value: 75 +/- 13%); format: functional
Meloidogyne incognita [7] = test: Nematicidal activity against second juvenile stage of Meloidogyne incognita (root-knot nematode) infected pea plant assessed as plant fresh weight at 2 kg ai/ha applied to soil measured up to 7 days post planting under green house conditions (reference value: 4.3 +/- 0.56 g); format: functional
Pisum sativum [8] = test: Phytotoxicity in Pisum sativum (pea) assessed as plant fresh weight at 2 kg ai/ha applied to soil measured up to 7 days post planting at 27 degC under green house conditions (reference value: 3.9 +/- 0.83 g); format: organism-based; settings: lathyrus oleraceus, in vivo, other, 168 h
Meloidogyne incognita [9] = test: Nematicidal activity against second juvenile stage of Meloidogyne incognita (root-knot nematode) infected lima bean plant assessed as root dry weight at 1 kg ai/ha applied to soil measured during planting under green house conditions (reference value: 0.5 +/- 0.052 g); format: functional
Pisum sativum [10] = test: Phytotoxicity in Pisum sativum (pea) assessed as plant height at 3 kg ai/ha applied to soil measured up to 7 days post planting at 19 degC (reference value: 6.2 +/- 0.6 cm); format: organism-based; settings: lathyrus oleraceus, in vivo, other, 168 h
Phaseolus lunatus [11] = test: Phytotoxicity in Phaseolus lunatus (lima bean) plant assessed as emergence at 0.56 kg ai/ha under green house conditions applied to soil (reference value: 70 +/- 16%); format: organism-based; settings: in vivo, other
Meloidogyne incognita [12] = test: Nematicidal activity against second juvenile stage of Meloidogyne incognita (root-knot nematode) infected lima bean plant assessed as emergence at 2 kg ai/ha applied to soil measured up to 7 days post planting under green house conditions (reference value: 83 +/- 5%); format: functional
Bemisia tabaci = test: Insecticidal activity against second-instar […] stage of Bemisia tabaci (sweet potato whitefly) infested cotton assessed as mortality applied through foliar spray after 6 days; format: functional
Meloidogyne incognita [13] = test: Nematicidal activity against second juvenile stage of Meloidogyne incognita (root-knot nematode) infected lima bean plant assessed as reduction in root gall index at 3 kg ai/ha applied to soil measured up to 7 days post planting under green house conditions (reference value: 7 +/- 0.27%); format: functional
Pisum sativum [14] = test: Phytotoxicity in Pisum sativum (pea) assessed as emergence at 3 kg ai/ha applied to soil measured up to 7 days post planting at 19 degC relative to untreated control; format: organism-based; settings: lathyrus oleraceus, in vivo, other, 168 h
Pisum sativum [15] = test: Phytotoxicity in Pisum sativum (pea) assessed as plant fresh weight at 4 kg ai/ha applied to soil measured up to 7 days post planting at 19 degC (reference value: 9.4 +/- 0.54 g); format: organism-based; settings: lathyrus oleraceus, in vivo, other, 168 h
Meloidogyne incognita [16] = test: Nematicidal activity against second juvenile stage of Meloidogyne incognita (root-knot nematode) assessed as mortality after 48 hr; format: functional
Pisum sativum [17] = test: Phytotoxicity in Pisum sativum (pea) assessed as plant fresh weight at 2 kg ai/ha applied to soil measured up to 7 days post planting at 19 degC (reference value: 9.4 +/- 0.54 g); format: organism-based; settings: lathyrus oleraceus, in vivo, other, 168 h
Trichoplusia ni [18] = test: Insecticidal activity against Trichoplusia ni (cabbage looper) infested cabbage assessed as mortality applied to soil after 72 hr; format: functional
Meloidogyne incognita [19] = test: Nematicidal activity against second juvenile stage of Meloidogyne incognita (root-knot nematode) infected pea plant assessed as root fresh weight at 2 kg ai/ha applied to soil measured up to 7 days post planting under green house conditions (reference value: 1.83 +/- 0.3 g); format: functional
Phaseolus lunatus [20] = test: Phytotoxicity in Phaseolus lunatus (lima bean) root assessed as root dry weight at 3.12 kg ai/ha applied to soil measured up to 14 days under green house conditions (reference value: 0.36 +/- 0.071 g); format: organism-based; settings: in vivo, other, 336 h
Pisum sativum [21] = test: Phytotoxicity in Pisum sativum (pea) assessed as root dry weight at 3 kg ai/ha applied to soil measured up to 14 days post planting at 27 degC under green house conditions (reference value: 0.33 +/- 0.075 g); format: organism-based; settings: lathyrus oleraceus, in vivo, other, 336 h
Trichoplusia ni [22] = test: Insecticidal activity against Trichoplusia ni (cabbage looper) infested cabbage assessed as mortality applied through foliar spray after 72 hr; format: functional
Pisum sativum [23] = test: Phytotoxicity in Pisum sativum (pea) assessed as plant fresh weight at 4 kg ai/ha applied to soil measured up to 7 days post planting at 27 degC under green house conditions (reference value: 3.9 +/- 0.83 g); format: organism-based; settings: lathyrus oleraceus, in vivo, other, 168 h
Gossypium hirsutum [24] = test: Phytotoxicity in Gossypium hirsutum (cotton) assessed as concentration required to cause foliar edge burn applied to soil after 3 weeks; format: organism-based; settings: in vivo, other, 504 h
Meloidogyne incognita [25] = test: Nematicidal activity against second juvenile stage of Meloidogyne incognita (root-knot nematode) infected pea plant assessed as root dry weight at 4 kg ai/ha applied to soil measured up to 7 days post planting under green house conditions (reference value: 0.25 +/- 0.041 g); format: functional
Meloidogyne incognita [26] = test: Nematicidal activity against second juvenile stage of Meloidogyne incognita (root-knot nematode) infected pea plant assessed as reduction in root gall index at 2 kg ai/ha applied to soil measured up to 7 days post planting under green house conditions (reference value: 9.7 +/- 0.30%); format: functional
Phaseolus lunatus [27] = test: Phytotoxicity in Phaseolus lunatus (lima bean) plant assessed as plant dry weight at 2.56 kg ai/ha applied to soil measured up to 14 days under green house conditions (reference value: 1.20 +/- 0.21 g); format: organism-based; settings: in vivo, other, 336 h
Pisum sativum [28] = test: Phytotoxicity in Pisum sativum (pea) assessed as plant height at 4 kg ai/ha applied to soil measured up to 7 days post planting at 27 degC under green house conditions (reference value: 9.6 +/- 1.5 cm); format: organism-based; settings: lathyrus oleraceus, in vivo, other, 168 h
Meloidogyne incognita [29] = test: Nematicidal activity against second juvenile stage of Meloidogyne incognita (root-knot nematode) infected pea plant assessed as root fresh weight at 3 kg ai/ha applied to soil measured up to 14 days post planting under green house conditions (reference value: 1.83 +/- 0.3 g); format: functional

CNC(=O)ON=C(C)SC [METHOMYL]
Activity (Gossypium hirsutum [1]): 500 µg/mL
Activity (Pisum sativum [2]): 3.1 g
Activity (Meloidogyne incognita [3]): 0.25 g
Activity (Meloidogyne incognita [4]): 1.59 g
Activity (Phaseolus lunatus [5]): 80%
Activity (Meloidogyne incognita [6]): 38%
Activity (Meloidogyne incognita [7]): 7.1 g
Activity (Pisum sativum [8]): 3 g
Activity (Meloidogyne incognita [9]): 0.44 g
Activity (Pisum sativum [10]): 6.9 cm
Activity (Phaseolus lunatus [11]): 80%
Activity (Meloidogyne incognita [12]): 100%
LC90 (Bemisia tabaci): 1589 µg/mL (≈ 9800 µM)
LC50 (Bemisia tabaci; Bemisia tabaci, foliar, 144 h): 203 µg/mL (≈ 1250 µM)
Root_galling_index (Meloidogyne incognita [13]): 0%
Activity (Pisum sativum [14]): 87%
Activity (Pisum sativum [15]): 8.5 g
LC90 (Meloidogyne incognita [16]): 15.2 µg/mL (≈ 93.7 µM)
LC50 (Meloidogyne incognita [16]; Meloidogyne incognita, Juvenile stage, 48 h): 4.9 µg/mL (≈ 30.2 µM)
Activity (Pisum sativum [17]): 11.6 g
LC90 (Trichoplusia ni [18]): 547 µg/mL (≈ 3370 µM)
LC50 (Trichoplusia ni [18]; Trichoplusia ni, soil, 72 h): 100 µg/mL (≈ 616 µM)
Activity (Meloidogyne incognita [19]): 2.04 g
Activity (Phaseolus lunatus [20]): 0.22 g
Activity (Pisum sativum [21]): 0.27 g
LC90 (Trichoplusia ni [22]): 533 µg/mL (≈ 3290 µM)
LC50 (Trichoplusia ni [22]; Trichoplusia ni, foliar, 72 h): 99 µg/mL (≈ 610 µM)
Activity (Pisum sativum [23]): 3.1 g
Activity (Gossypium hirsutum [24]): 100 µg/mL
Activity (Meloidogyne incognita [25]): 0.28 g
Root_galling_index (Meloidogyne incognita [26]): 0%
Activity (Phaseolus lunatus [27]): 1.25 g
Activity (Pisum sativum [28]): 9.1 cm
Activity (Meloidogyne incognita [29]): 0.89 g

From ChEMBL document CHEMBL3045068, “Effect of methomyl and oxamyl soil applications on early control of nematodes and insects” (Pest Manag Sci, 2011)
